Entries after “also recorded” stand apart in the source; their conditions may differ. Read-outs that look alike come from different tables or passages of the source.
How the values were obtained:
[1] = system: malignant melanoma; conditions: in vivo; cited from earlier work
[2] = system: GRC-1 multidrug resistant human cervical carcinoma cells; assay: modulation of VBL toxicity (colony formation), GRC-1; type: cell-based; conditions: 25 μM masoprocol, 10 days, 37° C.
Protocol: (§1) Drug-sensitive KB-3-1 cells and the drug resistant subline (KB-GRC-1) were obtained from Dr. Igor Roninson (University of Illinois, College of Medicine, Chicago, Ill.). Cells were maintained in Dulbecco's modified Eagle's medium supplemented with 10% fetal bovine serum and 2 mM glutamine. The KB-GRC-1 cells were maintained in medium supplemented with 6 ng/ml colchicine.
(§2) To test the modulation of VBL toxicity by masoprocol, cells which had been seeded at 200-300 cells/dish were incubated in media containing various concentrations of VBL in the absence or presence of 25 μM masoprocol. After an incubation period of 10 days at 37° C. the cells were fixed and stained, and the number of colonies per dish were counted and expressed as a percent of the number of colonies formed in control conditions. 1.

[3] = system: DLD-1 Colon cancer cells; assay: in vitro cytotoxicity anti tumor activity; type: cell-based; conditions: Homo sapiens, DLD-1, 1 h; One Hour Pulse Treatment; read-out: IC50
[4] = system: GRC-1 multidrug resistant human cervical carcinoma cells; assay: inhibition of colony formation, GRC-1; type: cell-based; conditions: Homo sapiens, 240 h, read-out: IC50 (Masoprocol), 50% inhibition of colony formation; 10 days, 37° C.; parenthesis: standard deviation
From the text: (§3) To investigate whether masoprocol modulates multidrug resistance, a line of multidrug resistant (GRC-1) cells which were derived from parenteral drug sensitive human cervical carcinoma (KB-3-1) cells by transfection of the mdr1 genes were employed. Such transfection was by the method set forth in Choi, et al., Cell 53:519-529, 1989. These cell lines differ only with respect to the over-expression of P-glycoprotein. These tests were designed to examine whether masoprocol modulates tumor cell drug resistance by interfering with P-glycoprotein function. […] See, Regulation of initial vinblastine influx by P-glycoprotein, Shalinsky, et al., cited above.
Masoprocol was provided by Chemex Pharmaceuticals, Inc. (Fort Lee, N.J.). Tritiated vinblastine ([^3 H]VBL) (10 Ci mmol^-1) was purchased from Moravek Biochemicals (Brea, Calif.), stored in the dark at -80° C. and protected from light during the experiments. Dipyridamole (DPM) was provided by Boerhinger Ingelheim Pharmaceuticals, Inc. (Ridgefield, Conn.).
as §1
(§4) First, cells which had been seeded at 200-300 cells/dish were incubated in media containing masoprocol or VBL. After an incubation period of 10 days at 37° C. the cells were fixed with methanol and stained with Giemsa, and the number of colonies per dish were counted and expressed as a percent of the number of colonies in control conditions. […] Parenthesis indicate standard deviations determined from replicate experiments.

[5] = system: SNB Glioblastoma cells; assay: in vitro cytotoxicity anti tumor activity; type: cell-based; conditions: read-out: IC50
[6] = system: GRC-1 multidrug resistant human cervical carcinoma cells; assay: efflux of VBL, GRC-1; type: cell-based; conditions: 50 μM masoprocol
Protocol: A further test was conducted to show the effect of masoprocol on the efflux of VBL from cells. Cells were incubated with [^3 H]VBL with or without 50 μM masoprocol for 2 hours. The medium was then replaced with drug-free medium. After incubation for various times, the amount of VBL remaining in the cells was determined as described above. The data was presented in terms of the percentage of VBL remaining at various efflux times compared to VBL in cells with an efflux time of zero. In FIGS. 3a and 3b, efflux is expressed as pmol VBL. In FIGS. 3c and 3d, efflux is expressed as percentage of VBL levels at time zero.

[7] = system: normal cells; assay: toxicity to normal cells as opposed to cancer cells; type: cell-based
[8] = system: KB-3-1 human cervical carcinoma cells; assay: inhibition of colony formation, KB-3-1; type: cell-based; conditions: KB 3-1, 240 h, read-out: IC50 (Masoprocol), 50% inhibition of colony formation, 10 days, 37° C., parenthesis: standard deviation
From the text: as §3
Masoprocol was provided by Chemex Pharmaceuticals, Inc. (Fort Lee, N.J.). Tritiated vinblastine ([^3 H]VBL) (10 Ci mmol^-1) was purchased from Moravek Biochemicals (Brea, Calif.), stored in the dark at -80° C. and protected from light during the experiments. […]
as §4

[9] = system: MCF7/0 human breast adenocarcinoma cells; assay: flow cytometry P-glycoprotein function assay of doxorubicin efflux, MCF7/0 (doxorubicin sensitive); type: cell-based
Protocol: The following tests were preformed to determine the effect of NDGA on efflux of doxorubicin (hereinafter sometimes referred to as DOX) for doxorubicin sensitive MCF7/0 and doxorubicin resistant MCF7/ADR human breast adenocarcinoma cells in vitro.
The cells were exposed to 50 μg/ml NDGA for 24 hrs prior to loading with DOX (doxorubicin) at 37° C. […] PBS. Flow analysis of cell efflux of DOX was collected over 30 minutes using the time parameter.
Procedure for P-Glycoprotein (PGP) Function Assay of Doxorubicin Efflux is shown hereunder.
1. […] Store at room temperature.
2. Doxorubicin (GFW=580) Make a solution of doxorubicin to contain 10 μg/ml. Store frozen at 0° C.
4. NDGA (MW=302.36) Make a solution of NDGA to contain 50 μg/ml. Store frozen at 0° C.
5. MCF7/0 (Doxorubicin sensitive) and MCF7/ADR (Doxorubicin resistant), human breast adenocarcinoma cell lines.
1. Make up 2×10^6 cells per ml in PBS. Expose 1 ml of cells to 50 μg of NDGA for 24 hrs at 37° C. prior to loading with Doxorubicin.
2. Add 1 ml of 10 μg/ml doxorubicin, mix and divide into two aliquots.
4. Incubate both tubes at 37° C. for 30 minutes.
5. Centrifuge the tubes at 37° C. for 5 minutes on a fast spin to pellet cells. Resuspend in 1 ml of buffer.
6. Run immediately on the flow cytometer. Excitation 488 nm, emission 560-600 nm. Collect forward and 90° side scatter and PMT4 linear scale. Collect 10,000-50,000 events and calculate the mean channel fluorescence (MCF) for PMT4.
7. Run both samples as close together as possible, and avoid prolonged exposure to room temperature.

[10] = system: KB-3-1 human cervical carcinoma cells; assay: modulation of VBL toxicity (colony formation), KB-3-1; type: cell-based; conditions: 25 μM masoprocol, 10 days, 37° C.
Protocol: as §1, §2

[11] = system: human cancer patients; conditions: cited from earlier work
[12] = system: CAK-1 Renal cancer cells; assay: in vitro cytotoxicity anti tumor activity; type: cell-based; conditions: read-out: IC50
[13] = system: several types of cancer cells; conditions: Cancer Chemotherapy National Service Center; cited from earlier work
[14] = system: Lung (NCI-H23) cancer cells; assay: in vitro cytotoxicity anti tumor activity; type: cell-based; conditions: Homo sapiens, read-out: IC50
[15] = Continuous Drug Exposure, observation at 70 hours

In the case of C[C@H](Cc1ccc(O)c(O)c1)[C@@H](C)Cc1ccc(O)c(O)c1 [Masoprocol, meso-1,4-bis (3,4-dihydroxyphenyl)-2,3-dimethylbutane], the “result against malignant melanoma” value [1] is listed as “positive result”, the “effect on VBL cytotoxicity / colony formation” value [2] is listed as “increase in the cytotoxicity of VBL; also recorded: increases the cytotoxic effect of VBL” and the IC50 [3] is listed as 124 µM. For the same compound, the IC50 [4] was 66.8 µM, the IC50 ([5]; 1 h, One Hour Pulse Treatment) was 312 µM and the IC50 [5, 15] was 0.08 µM. For the same compound, the “modulation of VBL efflux” value [6] was “does not modulate VBL efflux”, the “VBL levels at efflux time zero” value ([6]; 2 hours, FIG. 3a) was “higher in masoprocol-treated cells” and the “percent of VBL retained at various efflux time points” value ([6]; FIG. 3c) was “not affected by masoprocol treatment”. For the same compound, the “modulation of VBL efflux” value ([6]; listed as masoprocol) was “does not influence the rate of efflux of VBL”, the “toxicity to normal cells versus doxorubicin” value [7] was “less toxic than doxorubicin” and the IC50 [8] was 43.6 µM. For the same compound, the activation at 50 µg/mL ([9]; Homo sapiens, MCF7, 24 h, read-out: % DOX increase w/NDGA) was 44.5%, the “DOX loading / retention / accumulation (in words)” value ([9]; sensitive cells) was “loading more DOX after NDGA treatment than controls or verapamil treated cells” and the “effect on VBL cytotoxicity / colony formation” value [10] was “increase in the cytotoxicity of VBL; also recorded: increases the cytotoxic effect of VBL”. The “stimulation of tumor cell growth” value ([11]; in some cases) was “in some cases caused stimulation of tumor cell growth”, the “effectiveness as anticancer agent” value ([11]; ingested tea made from creosote bush or pure NDGA) was “neither NDGA nor the tea were effective anticancer agents” and the IC50 ([12]; 1 h, One Hour Pulse Treatment) was 211 µM. For the same compound, the IC50 [12, 15] was 53.4 µM, the “result in screening against cancer cells” value [13] was “negative results” and the IC50 ([14]; NCI-H23, 1 h, One Hour Pulse Treatment) was 172 µM. For the same compound, the IC50 ([14]; NCI-H23, Continuous Drug Exposure, observation at 70 hours) was 0.08 µM.

Reference: patent US5541232A, “Treatment of multidrug resistant diseases” (Chemex Pharmaceuticals, Inc., priority 1994, dated 1996)
